The text below walks through data of patent US20250376481A1, “POLYCYCLIC CARBAMOYL PYRIDONE DERIVATIVE, PREPARATION METHOD THEREFOR AND PHARMACEUTICAL COMPOSITION THEREOF” (NANJING AIDEA PHARMACEUTICAL TECHNOLOGY CO., LTD., priority 2021, published 2025).

A value given as a limit tells only on which side of the number the result lay.

Data set [1] in a line: Cytotoxicity test (cell viability, CellTier Glo). The data set is classed as cell-based. The following applies: human. As to the method: (§1) • Virus: The HIV-1 pseudovirus used in this experiment was a replication deficient virus, which is constructed by WuXi AppTec. • HEK 293T cell line was purchased from ATCC, and Item No. is CRL-11268. Cells were cultured in DMEM medium with 10% fetal bovine serum and 1% double antibody. • Reagents
(§2) On the first day, HEK 293T cells were inoculated into a 96 well test plate at the density of 55000 cells per well and […] per well, and incubated overnight in a 5% CO2 and 37° C. incubator.
(§3) On the second day, the tested compounds (compounds provided in the example of the present invention) and the control compounds were diluted 4-fold with cell culture medium for a total of 8 concentration points, and 50 μL diluted compounds were added to each well, and each well was performed duplicate.
(§4) Cell Control (cells, no compound treatment or virus infection) and virus control (cells infected with virus, no compound treatment) were set up. The final initial test concentration of the tested compounds and control compounds was 1000 nM (Table 1), and the amount of virus infection was 100 TCID50 per well. The total volume of cell culture medium was 200 μL per well, and the final concentration of DMSO in the culture medium was 0.5%.
(§5) The cells were cultured in a 5% CO2 and 37° C. incubator for additional 3 days.
On the fifth day, in the cytotoxicity test plates, 100 μL cell supernatant were sucked from each well, 100 μL cell viability assay reagent CellTier Gloin was added in dark. Cell viability in each well was detected by BioTek enzyme-linked immunosorbent assay reader, and the data was used for sample cytotoxicity analysis.
(§6) Dose-response curve was drawn through GraphPad Prism software. The calculation equations for antiviral activity (% Inhibition) and cell viability (% cell viability) were as follow:
(§7) The values of EC50 and CC50 were analyzed by GraphPad Prism (version 5) software, and nonlinear fitting analysis was used for inhibitory activity and cell viability of the compounds, and the fitting method was “log (inhibitor) vs. response—Variable slope”.
(§8) 3. The HIV-1 pseudovirus experiment was applied to determinate the in vitro antiviral activity and cytotoxicity of the tested compound on HEK 293T cells, and the experimental results were shown in the table below.

Another data set relates to HIV-1 pseudovirus. In words: HIV-1 pseudovirus infection test (antiviral activity, luciferase). The data set is classed as cell-based. The following applies: Human immunodeficiency virus 1, HEK-293T, 72 h. As for the experimental part: as §1, §2, §3
Subsequently, the HIV-1 pseudovirus was diluted to 100 TCID50/50 μL with cell culture medium, and 50 μL diluted virus was added to each well.
as §4, §5
On the fifth day, in the antiviral activity test plates, 100 μL cell supernatant was sucked away from each well, 100 μL 2X luciferase reporter gene assay reagent Britellite plus was added in dark. The luciferase activity in each well of the test plates was detected by Envision. The data was used for sample antiviral activity analysis.
as §6, §7, §8

The nature of data set [2]: Oil-water partition coefficient (n-octanol / pH 7.4 phosphate buffer). The data set is classed as physicochemical. The following applies: n-octanol / pH 7.4 phosphate buffer, pH 7.4; read-out: Log D (pH 7.4). As for the experimental part: • a) To a 5 mL glass bottle was added 1 mL n-octanol and 1 mL pH 7.4 phosphate buffer, respectively. • b) The compound was added to a DMSO solution to prepare a compound stock solution with a concentration of 10 mM, and then 20 μL compound stock solution was added to the mixture solution of n-octanol and phosphate buffer. • c) Shaken at room temperature for 1 hour at a rate of 300/minute. • d) Kept for 30 minutes, and after the solution was completely layered, the upper and lower layers of the solution were taken separately to a 96 well deep well plate, and LC-MS/MS was used for detection via injection. • e) The aliquots of 1-octanol and aqueous solution were diluted consecutively with DMSO to obtain the final sample for LC-MS/MS analysis. Three consecutive dilutions were carried on every 1-octanol phase with covering a concentration range of 2500 fold. Every final aqueous phase was diluted consecutively twice with covering a concentration range of 100 fold. The MS peak areas of these solutions were used to generate log (peak area) based on the log (relative concentration) calibration line.
[formula] • Coct=sample concentration in n-octanol • Caq=sample concentration in pH 7.4 phosphate buffer

The target of the next data set is HIV-1 integrase (Human immunodeficiency virus type 1 group M subtype B, UniProt P04585). In words: Integrase activity test (HIV-1 Integrase Assay Kit EZ-1700).
A short description of a further data set: in vivo. Particulars: male, cynomolgus monkey, po. More on the design: species or system Crab-eating macaques (Macaca fascicularis). As to the method: Crab-eating macaques were used as test animal, the LC-MS/MS was used to determinate the drug concentration at different times in the plasma of crab-eating macaques, who had been administered with compound 1 via gavage (PO). The pharmacokinetic behaviors of compounds of present disclosure in crab-eating macaques were studied and their pharmacokinetic characteristics were evaluated.
Crab-eating macaques (Macaca fascicularis), common grade, male, approximately 2.5-4 years old, 2-5 kg weight, 3 in each group.
Compound 1 and a solid substrate (hydroxypropyl methylcellulose acetate succinate) are dissolved in an organic solvent, and the solvent was removed by heating evaporation, or removed by a spray dryer to obtain compound 1 loaded on the solid substrate.
Compound 1 loaded on the solid substrate, which was obtained according to the above steps, was slowly added to a suitable container with approximately 80% final volume of vehicle while stirring. Stirred until it is visually uniform, and if necessary, the formulation shall be subjected to ultrasonic treatment. Vehicle was added to give the desired concentration. The obtained formulation shall be consecutively stirred until a visually uniform formulation was obtained, and if necessary, the formulation shall be subjected to ultrasonic treatment. The administration concentration with 20 mg/mL API concentration was prepared, and the preparation method for above vehicle was: approximately 30% total volume of purified water was added to an suitable container, and heated up to approximately 80° C.-90° C., the required volume of Tween 80 was added slowly to the container, while stirred until visually uniform. Purified water was added to the final volume. Stirred until a visually uniform solution was obtained.
Crab-eating macaques were fast overnight and given free access to water. […] Feeding was resumed 2 hours after administration.
For crab-eating macaques administered by gavage, 20 μL blood were collected from the veins in hind limb before administration and 0.25, 0.5, 1, 2, 4, 8, 24, 48, 72 and 96 hours after administration, respectively, and placed in EDTA-K2 anticoagulant blood collection tubes, and then the blood would be placed on ice until centrifuged to obtain plasma samples. The plasma samples were centrifuged at 4° C. (3500 rpm, 10 min), and after separation, the plasma samples were transferred to EP tubes and stored at −80° C. for detection.
The level of tested compounds in the plasma of crab eating macaques, who had been orally administrated with different concentrations of drug were determinated: 10 μL macaque blood at each time point after administration was taken, 100 μL methanol containing an internal standard (100 ng/mL) was added, vortex mixed for 1 minute, centrifuged at 4° C. (12000 rmp, 5 minutes), and 1 μL supernatant was taken from the plasma samples for LC-MS/MS analysis.

Description for HIV-1 integrase: A non-radioactive assay method, an integrase assay kit, was used to measure integrase activity quantitatively.
Each component was prepared according to the instructions of the kit; preparation of test sample, 5 mM DMSO solution was prepared for backup, working solution was prepared according to the initial final concentration determined at the time of method establishment, with a 4-fold gradient dilution and 10 concentrations.
• (1) The working solution of sample was prepared according to the initial concentration determinated during the methodology establishment process; • (2) Reagents were prepared according to the methods provided in the kit; • (3) DS DNA coating—blocking—addition of integrase solution—addition of sample—addition of TS DNA—addition of HRP antibody-addition of TMB peroxidase substrate—TMB termination reaction-detection of light absorption value at 450 nm.
The software Graphpad Prism 8.0 was applied and the calculation equation of Log (inhibitor) vs. response variable slope was used to fit the IC50 curve.

One may read the CC50 as the concentration that lowers cell viability or growth by half. Low values mean greater toxicity to the cells, high ones lower toxicity to the cells. The EC50 is the concentration that produces a half-maximal response. A word on the IC50: it is the concentration needed to halve the response being measured. A higher IC50 goes with weaker potency in that assay. One may read the AUC(0-inf) as the area under the concentration-time curve extrapolated to infinity. A higher AUC(0-inf) goes with high exposure. By AUC(0-t) is commonly meant the area under the concentration-time curve up to a stated or last time point. Low readings indicate less exposure, high ones more exposure. By Cmax is commonly meant the highest concentration seen after dosing. For orientation: MRT means a mean duration of stay, worked out from the concentration-time curve. What is called Tmax is the time from dosing to the highest level. As a reminder, the half-life is the time in which the quantity being followed falls by half. Low readings indicate rapid decline, high ones slow decline. With `C[C@H]1N2C(=O)c3c(O)c(=O)c(C(=O)NCc4ccc(F)cc4F)cn3C[C@@H]2OCC12CC2` [Compound 1], the CC50 at 3 days in data set [1] is more than 1000 nM. This molecule also yielded an EC50 with HIV-1 pseudovirus of 1.08 nM. For the same molecule, the logD in data set [2] is 2.2. This molecule also gave a half-maximal inhibitory concentration (IC50) on HIV-1 integrase of 9.19 nM. In the data set “in vivo” (30 mg/kg), this molecule displayed an AUC(0-inf) of 23100 ± 3840 ng·h/mL, an area under the curve AUC(0-t) of 22900 ± 3810 ng·h/mL, a maximum concentration (Cmax) of 1800 ± 534 ng/mL and a mean residence time MRT of 14.1 ± 2.68 h. Also, in the data set “in vivo” (30 mg/kg), the time to peak (Tmax) was 4 h and the half-life was 15.7 ± 5.49 h. In “in vivo” (100 mg/kg), the AUC(0-inf) was determined as 164000 ng·h/mL, the exposure AUC(0-t) worked out at 140000 ± 44200 ng·h/mL, the highest level (Cmax) was 4040 ± 871 ng/mL and the mean residence time (MRT) came out at 26.9 h. Also, in the data set “in vivo” (100 mg/kg), the Tmax was determined as 18.7 ± 25.4 h and the half-life was 19.8 ± 4.78 h.
